Assay results as given in patent publication US6414154B1, “Tetraisoquinoline derivatives as modulators of dopamine D3 receptors” (SmithKline Beecham p.l.c., priority 1998, dated 2002).

target: T1, human D3 dopamine receptors (Homo sapiens, UniProt P35462); assay: displacement of [125I] iodosulpride binding to cloned human D3 dopamine receptors expressed in CHO cells; settings: 0.1 nM [125I] iodosulpride, CHO cell membranes, 30 min at 37° C.; read-out: pKi at the D3 receptor (converted)
T1 construct: expressed in transfected cells; host or cells: CHO cells (crude cell membranes)
T1 sequence (P35462 whole entry): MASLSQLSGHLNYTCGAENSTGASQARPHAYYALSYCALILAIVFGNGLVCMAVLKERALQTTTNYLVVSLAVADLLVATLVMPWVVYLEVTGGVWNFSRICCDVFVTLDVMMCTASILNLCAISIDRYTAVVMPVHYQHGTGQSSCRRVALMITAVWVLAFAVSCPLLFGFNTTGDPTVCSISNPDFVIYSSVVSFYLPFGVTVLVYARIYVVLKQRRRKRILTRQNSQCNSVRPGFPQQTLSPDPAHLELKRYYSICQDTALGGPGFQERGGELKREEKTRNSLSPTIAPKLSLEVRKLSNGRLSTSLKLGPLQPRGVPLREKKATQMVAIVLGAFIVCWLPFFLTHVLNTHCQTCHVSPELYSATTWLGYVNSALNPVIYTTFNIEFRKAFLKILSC
Method: The inhibition constants (Ki) of test compounds for displacement of [^125I] iodosulpride binding to human D3 dopamine receptors expressed in CHO cells were determined as follows. […] Cultures were grown as monolayers or in suspension in standard cell culture media. Cells were recovered by scraping (from monolayers) or by centrifugation (from suspension cultures), and were washed two or three times by suspension in phosphate buffered saline followed by collection by centrifugation. Cell pellets were stored frozen at −40° C. Crude cell membranes were prepared by homogenisation followed by high-speed centrifugation, and characterisation of cloned receptors achieved by radioligand binding.
Cell pellets were gently thawed at room temperature, and resuspended in about 20 volumes of ice-cold 50 mM Tris salts (pH 7.4@37° C.), 20 mM EDTA, 0.2 M sucrose. The suspension was homogenised using an Ultra-Turrax at full speed for 15 sec. The homogenate was centrifuged at 18,000 r.p.m for 20 min at 4° C. in a Sorvall RC5C centrifuge. The membrane pellet was resuspended in ice-cold 50 mM Tris salts (pH 7.4@37° C.), using an Ultra-Turrax, and recentrifuged at 18,000 r.p.m for 15 min at 4° C. in a Sorvall RC5C. The membranes were washed two more times with ice-cold 50 mM Tris salts (pH 7.4@37° C.). The final pellet was resuspended in 50 mM Tris salts (pH 7.4@37° C.), and the protein content determined using bovine serum albumin as a standard (Bradford, M. M. (1976) Anal. Biochem. 72, 248-254).
Crude cell membranes were incubated with 0.1 nM [^125I] iodosulpride (˜2000 Ci/mmol; Amersham, U. K.), and the test compound in a buffer containing 50 mM Tris salts (pH 7.4@37° C.), 120 mM NaCl, 5 mM KCl, 2 mM CaCl2, 1 mM MgCl2, 0.1% (w/v) bovine serum albumin, in a total volume of 1 ml for 30 min at 37° C. Following incubation, samples were filtered using a Brandel Cell Harvester, and washed three times with ice-cold 50 mM Tris salts (pH 7.4@37° C.), 120 mM NaCl, 5 mM KCl, 2 mM CaCl2, 1 mM MgCl2. The radioactivity on the filters was measured using a Cobra gamma counter (Canberra Packard). Non-specific binding was defined as the radioligand binding remaining after incubation in the presence of 100 μM iodosulpride. For competition curves, 14 concentrations (half-log dilutions) of competing cold drug were used. Competition curves were analysed simultaneously whenever possible using non-linear least-squares fitting procedures, capable of fitting one, two or three site models.

Ki, 3.16 to 12.6 nM:
N#Cc1ccc2c(c1)CCN(CC[C@H]1CC[C@H](NC(=O)Cc3cccc(C(F)(F)F)c3)CC1)C2 [Example 20, trans-6-Cyano-2-(2-(1-(4-(3-trifluoromethyl)phenylacetamido)-cyclohexyl)ethyl)-1,2,3,4-tetrahydroisoquinoline]
N#Cc1ccc2c(c1)CCN(CC[C@H]1CC[C@H](NC(=O)Cc3ccccc3)CC1)C2 [Example 1, trans-6-Cyano-2-(2-(1-(4-phenylacetamido)cyclohexyl)ethyl)-1,2,3,4-tetrahydroisoquinoline]
N#Cc1ccc2c(c1)CCN(CC[C@H]1CC[C@H](NC(=O)Cc3cc4ccccc4o3)CC1)C2 [Example 31, trans-6-Cyano-2-(2-(1-(4-(2-benzofuranyl)acetamido)-cyclohexyl)ethyl)-1,2,3,4-tetrahydroisoquinoline]
